Seven molecules from US10124022B2, “Compositions and methods for enhancing the effectiveness of systemic, HIPEC, IP, and related cancer treatments” (ChemoTherapeutics, LLC, priority 2010, dated 2018) can be followed below.

Data set [1] has as its system HCT-116 cells. The data set is described as follows: MTS cell viability assay, drugs ± one-hour hyperthermia, cytotoxicity measured after three days (Studies 1-6).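 As to all read-outs here: Drug-treated HCT-116 cells held one hour at 42 °C (hyperthermia) or 37 °C, then cultured at 37 °C, viability read by MTS in triplicate wells.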 To be noted: for % cell survival / GI50 / growth inhibition at the concentrations tested / growth promoting effect / cell survival: three days; for GI50: HCT-116 cells; for effect on the cytotoxicity caused by Selenite: Study 6, FIG. 6c; for cell survival: 200 nM.
Experimental: For each study, two plates of HCT-116 cells were seeded in 96-well cell culture plates (2000 cells per well for three-day studies and 10,000 cells for one-day studies). The next day, drugs prepared in 200 μl of culture medium were added to the wells. […] Each treatment was completed in triplicate. One plate was incubated at 37° C. while the other plate was incubated at 42° C. (hyperthermia) for one hour (two hours for study 7 and 8). After the treatment, 4000 freshly harvested cells (cells which were not subjected to hyperthermia) were added to 3 wells of each plate to assess the effect of hyperthermia (for one-day experiments, 20,000 cells will be added). Both plates were incubated at 37° C. for the number of days specified in each study. Cell viability was measured using MTS assay (Promega CellTiter 96 Aqueous MTS Assay reagents).
Cytotoxicity was measured after three days.
The non-chemotherapeutic agent combinations tested were: Vitamin C/Selenite and Vitamin C/Selenite/Quercetin. Cytotoxicity was measured after three days.
The non-chemotherapeutic agent combinations tested were: Vitamin E/Selenite/Quercetin and Selenite/Quercetin. Cytotoxicity was measured after three days.
Tested the cytotoxic effects of combination treatments (±hyperthermia at 42° C. for one hour) with chemotherapeutic reagents (Mitomycin C at 0.2 and 0.8 μM or Cisplatin at 2.5 and 10 μM) and four non-chemotherapeutic reagents (100 nM Vitamin D, 40 μM Vitamin E, 20 μM Selenite and 150 μNA Quercetin). The non-chemotherapeutic agent combinations tested were: Quercetin/Vitamin D/Vitamin E/Selenite, Vitamin E/Selenite, and Vitamin D/Vitamin E/Selenite. Cytotoxicity was measured after three days.
The non-chemotherapeutic agent combinations tested were: Vitamin C/Selenite, Vitamin C/Quercetin, Selenite/Quercetin and Vitamin C/Selenite/Quercetin. Cytotoxicity was measured after three days.

In data set [2] the test system is HCT-116 cells. Briefly: MTS assay, two-hour drug treatment, drugs replaced with fresh medium, measured after one day (Study 7b). To be noted: FIG. 7b. In general terms: Tetrazolium assays rely on reduction of a dye to a coloured formazan, in cell work by metabolically active cells.
Experimental: For each study, two plates of HCT-116 cells were seeded in 96-well cell culture plates (2000 cells per well for three-day studies and 10,000 cells for one-day studies). The next day, drugs prepared in 200 μl of culture medium were added to the wells. […] Each treatment was completed in triplicate. One plate was incubated at 37° C. while the other plate was incubated at 42° C. (hyperthermia) for one hour (two hours for study 7 and 8). After the treatment, 4000 freshly harvested cells (cells which were not subjected to hyperthermia) were added to 3 wells of each plate to assess the effect of hyperthermia (for one-day experiments, 20,000 cells will be added). […] Cell viability was measured using MTS assay (Promega CellTiter 96 Aqueous MTS Assay reagents).
Tested the short-term cytotoxic effects of combination treatments (±hyperthermia at 42° C. for two hour) with chemotherapeutic reagents (0.2 μM Mitomycin C or 10 μM Cisplatin) and three non-chemotherapeutic reagents (1.25 mM Vitamin C, 20 μM Selenite and 150 μM Quercetin). […] Cytotoxicity was measured with MTS assay immediately after the two-hour drug/hyperthermia treatment. • b. […] Drugs were replaced with fresh medium after the treatment, and the cytotoxic effect was measured after one day. • c. Cells were incubated with drugs for one day before the cytotoxicity was measured.
The mark [3] stands for this setting: read-out: Growth inhibition (GI50).
The mark [4] stands for this setting: Study 5, no chemotherapeutic, 100 nM Vitamin D, 40 μM Vitamin E, 20 μM Selenite, 150 μM Quercetin as named, 37° C.
The mark [5] stands for this setting: Study 5, no chemotherapeutic, 100 nM Vitamin D, 40 μM Vitamin E, 20 μM Selenite, 150 μM Quercetin as named, 42° C. 1 hr.
Setting [6] is: Study 4, no chemotherapeutic, 40 μM Vitamin E, 20 μM Selenite, 150 μM Quercetin as named, 37° C.
Where [7] appears, read: Study 4, no chemotherapeutic, 40 μM Vitamin E, 20 μM Selenite, 150 μM Quercetin as named, 42° C. 1 hr.

Values joined by “and” are separate entries in the source; they are usually repeats but may differ in a detail not shown here. Equal entries are not always repeated. Where two headings read alike, the source gives them in different places.

As a reminder, the GI50 is the concentration giving 50% growth inhibition. `N.N.[Cl][Pt][Cl]` [Cisplatin, reference compound]: the “% cell survival” value in data set [1] (Study 4, 2.5 μM Cisplatin, alone or with 40 μM Vitamin E, 20 μM Selenite, 150 μM Quercetin as named, 37° C.) was found to be 74.7%; in data set [1] (Study 4, 2.5 μM Cisplatin, alone or with 40 μM Vitamin E, 20 μM Selenite, 150 μM Quercetin as named, 42° C. 1 hr), 61.7%; in data set [1] (Study 4, 10 μM Cisplatin, alone or with 40 μM Vitamin E, 20 μM Selenite, 150 μM Quercetin as named, 37° C.) it was 37.5%; in data set [1] (Study 4, 10 μM Cisplatin, alone or with 40 μM Vitamin E, 20 μM Selenite, 150 μM Quercetin as named, 42° C. 1 hr), 37.5%; in data set [1] (Study 5, 2.5 μM Cisplatin, alone or with 100 nM Vitamin D, 40 μM Vitamin E, 20 μM Selenite, 150 μM Quercetin as named, 37° C.) it was 86.1%; in data set [1] (Study 5, 2.5 μM Cisplatin, alone or with 100 nM Vitamin D, 40 μM Vitamin E, 20 μM Selenite, 150 μM Quercetin as named, 42° C. 1 hr) it was 76.0%. Further, the “% cell survival” value in data set [1] (Study 5, 10 μM Cisplatin, alone or with 100 nM Vitamin D, 40 μM Vitamin E, 20 μM Selenite, 150 μM Quercetin as named, 37° C.) came to 52.1%; in data set [1] (Study 5, 10 μM Cisplatin, alone or with 100 nM Vitamin D, 40 μM Vitamin E, 20 μM Selenite, 150 μM Quercetin as named, 42° C. 1 hr), 41.9%. Also, in data set [1] (setting [3]), the GI50 came out at 12 µM. Moreover, the “cancer cell killing after 2 hours of treatment, cell survival measured one day later” value in data set [2] was “additional killing effect”.
As to `CO[C@@]12[C@H](COC(N)=O)C3=C(C(=O)C(C)=C(N)C3=O)N1C[C@@H]1N[C@@H]12` [Mitomycin C, reference compound], the “% cell survival” value in data set [1] (Study 3, 0.2 μM Mitomycin C, alone or with 1.25 mM Vitamin C, 20 μM Selenite as named, 37° C.) is 35%; in data set [1] (Study 3, 0.2 μM Mitomycin C, alone or with 1.25 mM Vitamin C, 20 μM Selenite as named, 42° C. 1 hr), 36.9%; in data set [1] (Study 3, 0.8 μM Mitomycin C, alone or with 1.25 mM Vitamin C, 20 μM Selenite as named, 37° C.) it was 16.9%; in data set [1] (Study 3, 0.8 μM Mitomycin C, alone or with 1.25 mM Vitamin C, 20 μM Selenite as named, 42° C. 1 hr) it was 15.5%; in data set [1] (Study 4, 0.2 μM Mitomycin C, alone or with 40 μM Vitamin E, 20 μM Selenite, 150 μM Quercetin as named, 37° C.), 33.3%; in data set [1] (Study 4, 0.2 μM Mitomycin C, alone or with 40 μM Vitamin E, 20 μM Selenite, 150 μM Quercetin as named, 42° C. 1 hr) it was 36.5%. Also, the “% cell survival” value was 16.4% in data set [1] (Study 4, 0.8 μM Mitomycin C, alone or with 40 μM Vitamin E, 20 μM Selenite, 150 μM Quercetin as named, 37° C.) and 22.1% in data set [1] (Study 4, 0.8 μM Mitomycin C, alone or with 40 μM Vitamin E, 20 μM Selenite, 150 μM Quercetin as named, 42° C. 1 hr). Besides, the 50% growth inhibitory concentration (GI50) in data set [1] (setting [3]) turned out to be 1.3 µM.
As to `O=c1c(O)c(-c2ccc(O)c(O)c2)oc2cc(O)cc(O)c12` [Quercetin], the “% cell survival” value is recorded as 129% in data set [1] (Study 2, 20 μM, 37° C.); 118% in data set [1] (Study 2, 20 μM, 42° C. 1 hr); 123% in data set [1] (Study 2, 100 μM, 37° C.); 111% in data set [1] (Study 2, 100 μM, 42° C. 1 hr); 98.0% in data set [1] (setting [4]); 89.5% in data set [1] (setting [5]). The “growth inhibition at the concentrations tested” value in data set [1] (Study 2) was “did not show significant growth inhibition”. The “growth promoting effect” value in data set [1] (Study 2) was “slight growth promoting effect at the lower concentrations tested”. For the same molecule, in data set [1] (Study 3, FIG. 3b), the “cancer cell killing without chemotherapeutic agent, compared to the agents alone” value is on record as “did not show enhanced killing”. The “effect on cytotoxicity of the co-administered treatment” value in data set [1] (Study 4, FIG. 4b-4d) is given as “reduced the cytotoxicity of Selenite”; in data set [1] (Study 5, FIG. 5b-5e), “reduced the cytotoxicity of Selenite/Vit-D/Vit-E”. The “effect on the cytotoxicity caused by Selenite” value in data set [1] is “reduced the cytotoxicity caused by Selenite”.
With `O=[Se](O)O` [Selenite], the “effect of hyperthermia treatment on cell growth” value in data set [1] (Study 2, 42° C. 1 hr vs 37° C.) is reported as “No significant effect”. Moreover, the “% cell survival” value was 45% in data set [1] (setting [6]); 39.7% and 39.8% in data set [1] (setting [7]); 42.6% in data set [1] (setting [4]); 32.9% in data set [1] (setting [5]). Besides, in data set [1] (setting [3]), the concentration for 50% growth inhibition (GI50) was roughly 30 µM.
As to `O=C1O[C@H]([C@@H](O)CO)C(O)=C1O` [Vitamin C], the GI50 in data set [1] is roughly 2000 µM. The “% cell survival” value was 102% in data set [1] (Study 2, 0.08 mM, 37° C.); 92.6% in data set [1] (Study 2, 0.08 mM, 42° C. 1 hr); 97.6% in data set [1] (Study 2, 0.31 mM, 37° C.); 89% in data set [1] (Study 2, 0.31 mM, 42° C. 1 hr). The “effect on the cytotoxicity caused by Selenite” value in data set [1] was “did not appear to modulate the cytotoxicity caused by Selenite”.
Vitamin D came in with a cell survival in data set [1] (Study 2, 37° C.) of 122%. Besides, the cell survival in data set [1] (Study 2, 42° C. 1 hr) is 110%. Further, in data set [1] (Study 2), the “growth inhibition at the concentrations tested” value is recorded as “did not show significant growth inhibition” and the “growth promoting effect” value is reported as “slight growth promoting effect at the higher concentrations tested”.
Regarding Vitamin E, the “% cell survival” value in data set [1] (Study 2, 0.32 μM, 37° C.) came to 111%; in data set [1] (Study 2, 0.32 μM, 42° C. 1 hr) it was 95.5%; in data set [1] (Study 2, 1.6 μM, 37° C.), 116%; in data set [1] (Study 2, 1.6 μM, 42° C. 1 hr), 102%; in data set [1] (setting [6]), 105.7%; in data set [1] (setting [7]), 81.6%. Moreover, the “% cell survival” value worked out at 112.2% in data set [1] (setting [4]) and 95.5% in data set [1] (setting [5]). The “growth promoting effect” value in data set [1] (Study 2) was “slight growth promoting effect at the lower concentrations tested for 37 °C treated group”. The GI50 in data set [1] (setting [3]) was roughly 90 µM.
